Data published in patent US9534221B2, “Targeting the steroidogenic pathway for treating and/or preventing allergic diseases” (National Jewish Health, priority 2013, dated 2017).

Tests used:
Cyp11a1 = molecular target: T1, Cyp11a1 (Mus musculus, UniProt Q9QZ82); test: Pregnenolone ELISA in supernatants of differentiated CD8+ T cells (Cyp11a1 enzymatic activity); assay type: cell-based; conditions: CD8+ T cells differentiated in IL-2+IL-4, AMG 500 μM; without AMG 424.8±35.5 pg/ml
T1 construct: mononuclear cells (MNCs) were processed from the spleens of OT-1 mice; endogenous in cells
T1 sequence (Q9QZ82 37-526): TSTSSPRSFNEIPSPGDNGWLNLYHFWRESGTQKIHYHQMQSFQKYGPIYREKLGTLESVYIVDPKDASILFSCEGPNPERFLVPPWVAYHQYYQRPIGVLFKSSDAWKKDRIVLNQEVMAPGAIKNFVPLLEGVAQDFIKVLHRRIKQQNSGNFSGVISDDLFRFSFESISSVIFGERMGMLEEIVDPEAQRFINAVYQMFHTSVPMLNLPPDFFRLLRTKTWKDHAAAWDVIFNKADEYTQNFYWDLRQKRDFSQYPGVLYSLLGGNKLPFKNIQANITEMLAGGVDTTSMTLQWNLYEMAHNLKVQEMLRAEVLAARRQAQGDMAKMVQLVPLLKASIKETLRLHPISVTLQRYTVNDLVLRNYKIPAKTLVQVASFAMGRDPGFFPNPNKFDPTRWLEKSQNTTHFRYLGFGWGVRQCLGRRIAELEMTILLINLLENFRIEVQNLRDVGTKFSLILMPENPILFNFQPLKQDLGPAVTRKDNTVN
Method: CD8^+ effector memory T cells were generated in vitro as previously described (Miyahara, N. et al. J. Immunol. 172, 2549-2558 (2004); Miyahara, N. et al. J. Immunol. 174, 4979-4984 (2005)). In brief, mononuclear cells (MNCs) were processed from the spleens of OT-1 mice followed by stimulation of 1 μg/ml [sequence] peptide (SEQ ID NO:1) was used to stimulate cells for 1.5 hours. Two days after culture, living cells were re-isolated using histopaque and cultured in complete RPMI 1640 medium that contained recombinant mouse IL-2 (20 ng/ml) (R&D, Minneapolis, Minn.) or IL-2+IL-4 (20 ng/ml) (Peprotech, Rocky Hill, N.J.). For some experiments, AMG was added into the medium together with IL-2 or IL-2+IL-4. Medium with cytokines was changed every day for a further 4 days. The cells were then re-stimulated with 1 μg/ml [sequence] (SEQ ID NO:1) in medium containing 2 μM monensin (Calbiochem, La Jolla, Calif.) for 4 hours.
CD8^+ T cells generated in the presence of IL-2, IL-2+IL-4, IL-2+AMG, or IL-2+IL-4+AMG were cultured in 6-well plates at 5×10^6/ml for 24 hours. Supernatants were collected. Pregnenolone levels were measured using the Pregnenolone ELISA kit (ALPCO Diagnostics, Salem, N.H.).
The enzymatic activity of Cyp11a1 was assessed using an ELISA assay for detection of pregnenolone levels in cell culture supernatants (Kim, C. J. et al. J. Clin. Endocrinol. Metab. 93, 696-702 (2008)).

Balb/c mice = test: Peanut-induced intestinal allergy model (PE sensitized and challenged mice); assay type: in vivo, mouse
Method: The experimental protocol for sensitization and challenge to peanut was previously described (Wang, M., et al. J. Allergy Clin. Immunol. 126, 306-316 (2010).
AMG was dissolved in 1 M hydrogen chloride and diluted with saline for in vivo studies or diluted with RPMI medium for in vitro study. The final concentration of 1 M hydrogen chloride was less than 1% and 0.05% for in vivo and in vitro, respectively. PE sensitized and challenged mice received different doses (5, 10, 20 mg/kg) of the Cyp11a1 enzyme inhibitor (PE/PE/AMG) by means of gavage using a 22-gauge feeding needle (Fisher Scientific) twice a day during the peanut challenge phase. Controls included PE sensitized and challenged but vehicle (saline) treated (PE/PE/vehicle), or sham sensitized but PE challenged and vehicle-treated (PBS/PE/vehicle) mice.
Anaphylactic symptoms were evaluated 30 minutes after the oral challenge, as previously reported (Li, X. M., et al. J. Allergy Clin. Immunol. 106:150-158 (2000)). Briefly, 0: no symptoms; 1: scratching and rubbing around the nose and head; 2: puffiness around the eyes and mouth, diarrhea, pilar erecti, reduced activity, and/or decreased activity with increased respiratory rate; 3: wheezing, labored respiration, and cyanosis around the mouth and the tail; 4: no activity after prodding or tremor and convulsion; and 5: death. Scoring of symptoms was performed in a blinded manner by an independent observer.
The jejunum was processed and stained with periodic acid-Schiff (PAS) and chloroacetate esterase for detection of mucosal mucus-containing cells and mast cells respectively, as previously described (Wang, M., et al. J. Allergy Clin. Immunol. 126, 306-316 (2010); Tomkinson, A., et al. Am. J. Respir. Crit. Care Med. 163, 721-730 (2001)). Numbers of mucosal cells expressing Cyp11a1 were identified by immunohistochemical (IHC) staining using anti-human Cyp11a1 antibody (Abcam, Cambridge, Mass.).
Serum peanut-specific IgE, IgG1, and IgG2a levels were measured by ELISA, as described previously (Payne, A. H. Biol. Reprod. 42, 399-404 (1990)).
Levels of histamine in plasma were measured using an enzyme immunoassay histamine kit (Beckman Coulter, Fullerton, Calif.), as described by the manufacturer. The concentration of histamine was calculated from a standard curve provided by the manufacturer.
RNA was extracted from jejunal tissue homogenates or from CD4 T cells cultured in vitro using Trizol (Invitrogen). cDNA was generated using the iScript cDNA synthesis kit (Bio-Rad Laboratories, Hercules, Calif.). Quantitative real-time PCR was performed on the ABI Prism 7300 sequence detection system (Applied Biosystems, Foster City, Calif.). All primers and probes used were purchased as Tagman Gene Expression Assays from Applied Biosystems. Fold change was calculated using the Delta Delta cycle threshold (ΔΔCT) method.

CD8+ T cells = test: Flow cytometric intracellular staining of IFN-γ and IL-13 in CD8+ T cells; assay type: cell-based, mouse; conditions: no SIINFEKL

CCC1(c2ccc(N)cc2)CCC(=O)NC1=O (stereo not shown) [AMG, aminoglutethimide]
Pregnenolone levels in cell supernatants (Cyp11a1): 96.4 ± 35 pg/mL | Clinical symptoms (Balb/c mice; 5 mg/kg): no observed inhibitory effects | Diarrhea occurrence (Balb/c mice; 5 mg/kg): no observed inhibitory effects | Diarrhea (Balb/c mice; 10 mg/kg): partially inhibited | Symptom scores (Balb/c mice; 10 mg/kg): partially inhibited | Numbers of mast cells in the mucosa of the small intestine (Balb/c mice; 20 mg/kg): markedly reduced | Numbers of mucus-producing goblet cells in the mucosa of the small intestine (Balb/c mice; 20 mg/kg): markedly reduced | Clinical symptom scores (Balb/c mice; 20 mg/kg, 30 minutes after oral challenge): significantly diminished | Development of diarrhea (Balb/c mice; 20 mg/kg, gavage twice a day during challenge phase): fully prevented | Cyp11a1 mRNA in the small intestine (Balb/c mice; AMG 20 mg/kg): did not affect | GATA3 mRNA expression in the small intestine (Balb/c mice; AMG 20 mg/kg): not affected | IL4 mRNA expression in the small intestine (Balb/c mice; AMG 20 mg/kg): reduced to baseline levels | IL13 mRNA expression in the small intestine (Balb/c mice; AMG 20 mg/kg): reduced to baseline levels | IL17A mRNA expression in the small intestine (Balb/c mice; AMG 20 mg/kg): reduced to baseline levels | Numbers of Cyp11a1-positive cells in the small intestine (Balb/c mice; AMG 20 mg/kg): did not affect | RORγt mRNA expression in the small intestine (Balb/c mice; AMG 20 mg/kg): not affected | T-bet mRNA expression in the small intestine (Balb/c mice; AMG 20 mg/kg): not affected | Plasma histamine levels (Balb/c mice; AMG 20 mg/kg, within 30 minutes of the last challenge): significantly lower | Serum peanut-specific IgE (Balb/c mice; AMG given after sensitization): unaffected | Serum peanut-specific IgG1 (Balb/c mice; AMG given after sensitization): unaffected | Serum peanut-specific IgG2a (Balb/c mice; AMG given after sensitization): unaffected | IFN-γ single positive cells (CD8+ T cells; IL-2+AMG (500 μM)): 0.2 +/− 0.1% | IFN-γ+IL13+ double positive cells (CD8+ T cells; IL-2+AMG (500 μM)): 0% | IL-13 single positive cells (CD8+ T cells; IL-2+AMG (500 μM)): 0.4 +/− 0.2% | IFN-γ+IL13+ double positive cells (CD8+ T cells; IL-2+IL-4+AMG (500 μM)): 0.1%
